Read-outs that look alike come from different tables or passages of the source.
What was measured:
5-HT1A receptor [1] = target: T1, 5-HT1A receptor (Homo sapiens, UniProt P08908); settings: for voltage dependence of potency: −80 mV versus +40 mV
T1 sequence (P08908 1-422): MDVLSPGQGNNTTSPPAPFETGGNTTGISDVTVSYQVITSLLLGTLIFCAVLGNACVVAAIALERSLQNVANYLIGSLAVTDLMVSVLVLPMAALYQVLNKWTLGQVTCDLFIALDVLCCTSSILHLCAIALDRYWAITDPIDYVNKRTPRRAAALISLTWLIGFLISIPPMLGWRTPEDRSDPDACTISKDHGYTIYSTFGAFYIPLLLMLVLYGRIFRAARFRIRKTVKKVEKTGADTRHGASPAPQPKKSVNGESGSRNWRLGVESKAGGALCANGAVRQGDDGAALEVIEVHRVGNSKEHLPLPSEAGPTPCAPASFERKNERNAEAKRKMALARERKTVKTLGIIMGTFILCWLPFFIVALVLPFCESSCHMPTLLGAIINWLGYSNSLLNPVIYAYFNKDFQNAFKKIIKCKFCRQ

5-HT1A receptor [2] = target: T1, 5-HT1A receptor; assay: cell-based; parameters: Emax: dose or concentration left out as unconfirmed; settings: for EC50: EC50 (activation of receptor-mediated GIRK current), wt receptor, 72 mM Na+ solution

SMILES	effect of removal of extracellular Na+ on maximal I5-HT (5-HT1A receptor [1]; 5 μM 5-HT, Na+-free versus 72 mM Na+)	decrease of potency by depolarization (5-HT1A receptor [1]; +40 mV versus −80 mV, 72 mM Na+)	voltage dependence of potency (5-HT1A receptor [1])	Emax (5-HT1A receptor [2]; read-out: maximal response relative to the maximal response produced by 5-HT)	EC50 (5-HT1A receptor [2]; holding potential +40 mV)	EC50 (5-HT1A receptor [2]; holding potential −80 mV)	Emax (5-HT1A receptor [2]; read-out: maximal response relative to the maximal response evoked by 5-HT at the same oocytes)
NCCc1c[nH]c2ccc(O)cc12 [5-HT, 5-hydroxytryptamine]	did not affect the maximal current	more than 20 fold	–	–	–	–	–
O=C1CC2(CCCC2)CC(=O)N1CCCCN1CCN(c2ncccn2)CC1 [buspirone]	–	–	not voltage dependent	~42%	–	–	–
O=C1[C@@H]2[C@H]3CC[C@H](C3)[C@@H]2C(=O)N1CCCCN1CCN(c2ncccn2)CC1 [tandospirone]	–	–	voltage-dependent	–	938 nM	194 nM	~55%

Reference: PMC9136116, “The activity of the serotonergic 5-HT1A receptor is modulated by voltage and sodium levels” (The Journal of Biological Chemistry, 2022)
